Data taken from PMC9851200, “Multiparameter phenotypic screening for endogenous TFEB and TFE3 translocation identifies novel chemical series modulating lysosome function” (Autophagy, 2022).
Entries after “also recorded” stand apart in the source; their conditions may differ.

Experiments:
endogenous TFEB = test: TFEB nuclear translocation, immunocytochemistry high-content imaging; format: cell-based; conditions: for TFEB %: PKIS2 primary screening
endogenous TFE3 = test: TFE3 nuclear translocation, immunocytochemistry high-content imaging; format: cell-based; conditions: for TFE3 %: PKIS2 primary screening
SH-SY5Y cells [1] = test: Chemotype enrichment analysis of PKIS2 primary screen hit categories; conditions: PKIS2 primary screening, hit category
SH-SY5Y cells [2] = conditions: for DQ Intensity / DQ Spot: PKIS2 primary screening; for DQ Intensity: DQ Red BSA intensity; for DQ Spot: DQ Red BSA spot count
Description: The PKIS2 Library was supplied by The Structural Genomics Consortium at the University of North Carolina at Chapel Hill.

SH-SY5Y cells [3] = test: AK (adenylate kinase) release ToxiLight cytotoxicity assay; conditions: for AK: PKIS2 primary screening
Protocol: Total cell lysis with 5 µL 5% Triton-X 100 (Sigma-Aldrich, T8787) is used as a positive control for the assay and toxicity is expressed as a percentage of luminescence under DMSO conditions.

SH-SY5Y cells [4] = test: Nuclear count from microscopy images (cellular growth and toxicity); conditions: PKIS2 primary screening

Compound	TFEB % (endogenous TFEB) [%]	TFE3 % (endogenous TFE3) [%]	Outcome (SH-SY5Y cells [1])	DQ Intensity (SH-SY5Y cells [2])	DQ Spot (SH-SY5Y cells [2])	AK (SH-SY5Y cells [3])	Nuclear Count (SH-SY5Y cells [4])	TFEB translocation (in words) (endogenous TFEB; SH-SY5Y, 24 h treatment)	TFE3 translocation (in words) (endogenous TFE3; SH-SY5Y, 24 h treatment)	DQ Red BSA fluorescence intensity (in words) (SH-SY5Y cells [2]; SH-SY5Y, 24 h treatment)	DQ Red BSA spot count / active lysosome count (in words) (SH-SY5Y cells [2]; SH-SY5Y, 24 h treatment)	Cellular toxicity (AK release and nuclear count, in words) (SH-SY5Y cells [3]; SH-SY5Y, 24 h treatment)
Cl.Cl.NC(CNC(=O)c1cc(Br)c(-c2ccnc3[nH]ccc23)s1)c1ccccc1 (stereo not shown) [UNC10225176A]	17.27	37.70	TFEB/3 + DQ Int	298.60	72.64	110.45	58.33	–	–	–	–	–
Cc1ccc(C(=O)Nc2ccc(Nc3ccnc4cc(-c5ccccn5)ccc34)cc2O)cc1.Cl [UNC10225182A]	30.37	92.07	LYSO TOXIC	19.25	15.81	82.72	71.22	–	–	–	–	–
Fc1cc(Cl)ccc1Nc1ccnc2cc(I)ccc12 [UNC10225189A]	3.86	9.39	LYSO TOXIC	39.14	61.91	112.41	145.49	–	–	–	–	–
c1ccc(Oc2ccc(Nc3ccnc4ccc(-c5ccccn5)cc34)cc2)cc1 [UNC10225215A]	9.01	13.98	LYSO TOXIC	94.87	78.82	106.19	111.99	–	–	–	–	–
CN1C(=O)C(Nc2ccccc2)=C(c2ccccc2)C1=O [UNC10225242A]	6.14	13.56	TOXIC	102.22	99.91	287.85	117.96	–	–	–	–	–
Cl.Cl.NC[C@H](CC1CCCCC1)NC(=O)c1cc(Br)c(-c2ccnc3[nH]ccc23)s1 [UNC10225276A]	12.93	33.43	TFEB/3 + DQ Int	221.52	71.17	108.11	101.96	–	–	–	–	–
Fc1cc(Cl)ccc1Nc1ccnc2cc(-c3ccc(CN4CCSCC4)o3)ccc12 [UNC10225290A]	9.12	15.63	LYSO TOXIC	59.38	53.95	104.94	127.72	–	–	–	–	–
Nc1nc(-c2cccnc2)c(-c2ccnc3ccccc23)s1 [UNC10225309A]	13.96	14.98	DQ and TFEB	115.27	134.42	67.30	71.32	–	–	–	–	–
Cc1cccc2c(-c3ccncc3)c(-c3ccc(F)cc3)nn12.Cl [UNC10225316A]	5.61	21.03	TFE3	71.88	91.98	93.04	85.13	–	–	–	–	–
Fc1cccc(COc2ccc(Nc3ncnc4nn5ccccc5c34)cc2Cl)c1 [UNC10225319A]	3.13	21.26	TFE3 + DQ	134.45	139.92	110.07	77.83	–	–	–	–	–
COc1ccc(-c2nc3n(c2-c2ccncc2)CCC3)cc1 [UNC10225334A]	5.64	11.25	DQ Only	120.06	119.57	77.50	82.13	–	–	–	–	–
c1ccc(-c2ccnc3[nH]ccc23)cc1 [UNC10225337A]	6.67	8.32	TOXIC	103.32	96.87	289.20	120.86	–	–	–	–	–
Cl.c1ccc(-c2ccc3c(Nc4ccc5[nH]ccc5c4)ccnc3c2)nc1 [UNC10225345A]	8.10	38.32	TOXIC	44.66	42.49	157.00	89.15	–	–	–	–	–
CC(C)(C)c1ccc2nccc(Nc3cccc(O)c3)c2c1 [UNC10225361A]	10.76	26.88	LYSO TOXIC	97.55	54.23	101.00	71.73	–	–	–	–	–
CC(=O)Nc1ccc(COc2ccc(Nc3ccnc4cc(-c5ccccn5)ccc34)cc2)cc1.Cl [UNC10225390A]	19.19	50.24	LYSO TOXIC	42.39	42.67	71.40	89.28	–	–	–	–	–
CN(C)CCOc1ccc(-c2cc(-c3ccc(Cl)c(O)c3)c(-c3ccncc3)[nH]2)cc1.Cl.Cl [UNC10225395A]	15.65	46.41	LYSO TOXIC	71.39	40.46	117.96	86.70	–	–	–	–	–
COc1ccc(C[C@@H](CN)NC(=O)c2cc(Br)c(-c3ccnc4[nH]ccc34)s2)cc1.Cl.Cl [UNC10225412A, reference compound]	17.53	22.21	TOXIC	276.55	119.63	302.26	99.32	translocation of TFEB and TFE3	strong TFE3 translocation; also recorded: translocation of TFEB and TFE3	increase in DQ Red BSA fluorescence intensity	small reduction in puncta count	no toxicity; also recorded: without cellular toxicity
O=C(c1ccc(-c2cc(-c3c[nH]nc3-c3ccccn3)ccn2)cc1)N1CCOCC1 [UNC10225421A]	4.79	13.41	DQ Only	150.15	98.06	76.85	121.31	–	–	–	–	–
FC(F)(F)c1ccc(-c2ncn(CCCN3CCOCC3)c2-c2ccncc2)cc1 [UNC10225425A]	5.42	9.69	LYSO TOXIC	74.41	77.10	109.44	88.34	–	–	–	–	–
CN(C)Cc1ccc(-c2ccc3c(Nc4ccc(Oc5ccccn5)cc4)ccnc3c2)o1 [UNC10225428A]	28.26	34.27	LYSO TOXIC	85.61	47.88	81.74	92.33	–	–	–	–	–
COc1ccc(-c2oc3ncnc(N)c3c2-c2ccc(OC)cc2)cc1 [UNC10225431A]	4.87	9.25	DQ Only	144.39	120.26	79.67	51.87	–	–	–	–	–
Cc1ccc(C(=O)Nc2ccc(Nc3ccnc4cc(-c5nccs5)ccc34)cc2O)cc1.Cl [UNC10225432A]	8.56	56.52	LYSO TOXIC	38.26	36.88	74.29	89.90	–	–	–	–	–
CCNCC(Cc1ccccc1)NC(=O)c1cc(Br)c(-c2ccnc3[nH]ccc23)s1.Cl.Cl (stereo not shown) [UNC10225436A]	20.72	35.73	DQ / TFEB/TFE3	185.61	102.66	108.80	80.17	–	–	–	–	–
